Results on twelve molecules are retold here after patent US11739098B2 (BRISTOL-MYERS SQUIBB COMPANY, priority 2017, dated 2023).

Structures are written as SMILES.

What all share (assay type): cell-based
The target of assay [1] is T1, human TLR7 (Homo sapiens, UniProt Q9NYK1).
T1 construct: host or cells: HEK-Blue cells (HEK293-derived reporter line)
T1 sequence (Q9NYK1 27-1049): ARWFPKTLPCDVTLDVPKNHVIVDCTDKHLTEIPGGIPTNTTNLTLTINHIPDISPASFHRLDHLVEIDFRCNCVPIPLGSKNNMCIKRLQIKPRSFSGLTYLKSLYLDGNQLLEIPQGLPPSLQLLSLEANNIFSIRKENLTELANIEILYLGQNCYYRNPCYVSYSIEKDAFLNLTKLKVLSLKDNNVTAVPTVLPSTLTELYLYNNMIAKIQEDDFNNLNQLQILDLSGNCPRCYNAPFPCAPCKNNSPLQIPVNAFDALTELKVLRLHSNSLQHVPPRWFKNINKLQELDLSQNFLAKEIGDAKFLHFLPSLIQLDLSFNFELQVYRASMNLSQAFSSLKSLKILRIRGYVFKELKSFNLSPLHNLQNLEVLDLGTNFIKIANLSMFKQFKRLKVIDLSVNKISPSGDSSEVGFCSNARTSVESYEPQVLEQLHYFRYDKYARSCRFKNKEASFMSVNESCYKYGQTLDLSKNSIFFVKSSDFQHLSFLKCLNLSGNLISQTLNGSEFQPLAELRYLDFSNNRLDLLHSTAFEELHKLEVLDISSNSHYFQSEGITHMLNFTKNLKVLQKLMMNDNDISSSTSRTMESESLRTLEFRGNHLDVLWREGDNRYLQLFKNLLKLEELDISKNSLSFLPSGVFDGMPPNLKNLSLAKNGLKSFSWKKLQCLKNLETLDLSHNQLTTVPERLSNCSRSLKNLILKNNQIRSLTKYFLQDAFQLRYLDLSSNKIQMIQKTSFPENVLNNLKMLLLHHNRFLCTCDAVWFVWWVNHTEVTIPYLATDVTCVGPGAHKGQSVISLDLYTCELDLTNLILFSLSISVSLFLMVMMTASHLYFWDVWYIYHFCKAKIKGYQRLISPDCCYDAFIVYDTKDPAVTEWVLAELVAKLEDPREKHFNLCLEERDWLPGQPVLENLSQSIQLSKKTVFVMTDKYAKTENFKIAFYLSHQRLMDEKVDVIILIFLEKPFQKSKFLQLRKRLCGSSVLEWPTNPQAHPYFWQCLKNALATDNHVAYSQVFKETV
The experiment in a line: TLR7 inhibition reporter assay (HEK-Blue cells, SEAP reporter, gardiquimod stimulation). As to conditions: HEK-Blue cells overexpressing human TLR7, SEAP reporter, gardiquimod 7.5 μM. In outline:
(§1)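 Percent inhibition of agonist-induced SEAP secretion in HEK-Blue cells after 22 h at 37 °C. Stimuli: 7.5 μM gardiquimod, 15.9 μM R848, 5 nM ODN2006 for TLR7, TLR8 and TLR9, added after 30 min compound exposure over a 0.05 nM–50 μM range.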
On the technique in general: Reporter assays use an easily measured gene product as a stand-in for the process of interest.

Assay [2] deals with T2, human TLR8 (Homo sapiens, UniProt Q9NR97).
T2 construct: host or cells: HEK-Blue cells (HEK293-derived reporter line)
T2 sequence (Q9NR97 27-1041): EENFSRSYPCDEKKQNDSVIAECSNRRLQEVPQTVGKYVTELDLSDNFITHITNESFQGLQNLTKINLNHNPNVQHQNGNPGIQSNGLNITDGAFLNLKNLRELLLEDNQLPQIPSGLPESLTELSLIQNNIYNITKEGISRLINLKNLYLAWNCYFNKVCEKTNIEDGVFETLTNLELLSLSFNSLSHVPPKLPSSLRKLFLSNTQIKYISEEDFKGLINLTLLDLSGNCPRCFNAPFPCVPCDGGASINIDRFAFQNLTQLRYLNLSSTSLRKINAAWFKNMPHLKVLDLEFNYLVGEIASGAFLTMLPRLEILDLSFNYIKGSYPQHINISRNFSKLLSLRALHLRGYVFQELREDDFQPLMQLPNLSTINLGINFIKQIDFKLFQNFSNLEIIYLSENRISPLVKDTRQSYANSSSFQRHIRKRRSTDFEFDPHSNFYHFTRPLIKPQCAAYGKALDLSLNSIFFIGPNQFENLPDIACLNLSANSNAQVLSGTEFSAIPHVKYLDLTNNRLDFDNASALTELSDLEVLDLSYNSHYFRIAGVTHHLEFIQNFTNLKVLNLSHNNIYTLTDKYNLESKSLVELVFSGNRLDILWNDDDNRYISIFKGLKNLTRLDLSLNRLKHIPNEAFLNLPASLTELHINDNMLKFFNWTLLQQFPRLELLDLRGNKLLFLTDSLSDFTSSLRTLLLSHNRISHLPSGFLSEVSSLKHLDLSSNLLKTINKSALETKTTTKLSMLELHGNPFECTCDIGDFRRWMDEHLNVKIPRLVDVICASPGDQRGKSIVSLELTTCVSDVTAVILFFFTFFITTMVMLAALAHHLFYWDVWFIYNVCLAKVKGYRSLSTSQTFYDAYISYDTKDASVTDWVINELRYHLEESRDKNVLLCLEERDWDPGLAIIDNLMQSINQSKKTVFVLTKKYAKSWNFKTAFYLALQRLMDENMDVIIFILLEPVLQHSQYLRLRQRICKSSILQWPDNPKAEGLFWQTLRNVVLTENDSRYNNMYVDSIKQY
The experiment in a line: TLR8 inhibition reporter assay (HEK-Blue cells, SEAP reporter, R848 stimulation). As to conditions: HEK-Blue cells overexpressing human TLR8, SEAP reporter, R848 15.9 μM. In outline:
as §1

Assay [3] has as its target T3, human TLR9 (Homo sapiens, UniProt Q9NR96).
T3 construct: host or cells: HEK-Blue cells (HEK293-derived reporter line)
T3 sequence (Q9NR96 26-1032): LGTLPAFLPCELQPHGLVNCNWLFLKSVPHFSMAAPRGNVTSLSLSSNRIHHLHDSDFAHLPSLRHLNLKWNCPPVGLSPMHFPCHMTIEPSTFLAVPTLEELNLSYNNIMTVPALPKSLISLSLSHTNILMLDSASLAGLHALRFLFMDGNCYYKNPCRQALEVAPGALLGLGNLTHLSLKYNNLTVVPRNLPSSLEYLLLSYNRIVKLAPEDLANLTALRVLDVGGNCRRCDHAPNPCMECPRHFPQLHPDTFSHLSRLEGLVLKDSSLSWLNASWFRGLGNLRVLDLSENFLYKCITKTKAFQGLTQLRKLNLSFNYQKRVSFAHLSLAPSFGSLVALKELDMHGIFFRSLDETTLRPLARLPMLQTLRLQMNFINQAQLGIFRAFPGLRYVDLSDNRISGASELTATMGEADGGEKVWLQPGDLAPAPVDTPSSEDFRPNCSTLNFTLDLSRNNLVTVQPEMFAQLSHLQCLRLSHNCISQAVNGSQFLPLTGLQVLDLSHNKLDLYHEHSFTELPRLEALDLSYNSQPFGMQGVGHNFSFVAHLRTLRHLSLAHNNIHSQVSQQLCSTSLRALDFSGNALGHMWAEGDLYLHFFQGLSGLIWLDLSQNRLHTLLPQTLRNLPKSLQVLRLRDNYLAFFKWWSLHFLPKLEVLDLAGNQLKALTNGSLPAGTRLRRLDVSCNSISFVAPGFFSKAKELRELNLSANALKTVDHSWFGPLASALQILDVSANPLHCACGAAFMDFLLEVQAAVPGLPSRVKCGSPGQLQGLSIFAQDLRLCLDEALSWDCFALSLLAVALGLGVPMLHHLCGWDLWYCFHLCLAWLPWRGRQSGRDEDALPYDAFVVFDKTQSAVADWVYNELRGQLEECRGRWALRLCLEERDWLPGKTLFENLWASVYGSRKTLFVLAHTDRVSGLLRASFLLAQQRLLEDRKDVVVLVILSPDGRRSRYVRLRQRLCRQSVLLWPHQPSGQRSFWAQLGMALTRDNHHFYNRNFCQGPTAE
The experiment in a line: TLR9 inhibition reporter assay (HEK-Blue cells, SEAP reporter, ODN2006 stimulation). To be noted: HEK-Blue cells overexpressing human TLR9, SEAP reporter, ODN2006 5 nM. In outline:
as §1

A word on the IC50: it is the point on the concentration scale where inhibition reaches its midpoint. Consider `CC(=O)NCCNCC(=O)N1CCC(c2ccc3[nH]c(-c4ccnc5[nH]ncc45)c(C(C)C)c3c2)CC1` [Example 573, N-(2-((2-(4-(3-isopropyl-2-(1H-pyrazolo[3,4-b]pyridin-4-yl)-1H-indol-5-yl)piperidin-1-yl)-2-oxoethyl)amino)ethyl)acetamide], for which the IC50 in assay [1] was < 100 nM; in assay [2], < 100 nM; in assay [3], 1000 to 50000 nM.
Take `CC(C)c1c(-c2ccc3nc(N)cn3n2)[nH]c2ccc(C3CCNCC3)cc12` [Example 24, 6-(3-isopropyl-5-(piperidin-4-yl)-1H-indol-2-yl)imidazo[1,2-b]pyridazin-2-amine]: the IC50 in assay [1], in assay [2] and in assay [3] was 1000 to 50000 nM in each case.
With `Cc1cn2cc(-c3[nH]c4ccc(C5CCN(C(=O)CN(C)C)CC5)cc4c3C(C)C)cc(C(F)(F)F)c2n1` [Example 511, 2-(dimethylamino)-1-(4-(3-isopropyl-2-(2-methyl-8-(trifluoromethyl)imidazo[1,2-a]pyridin-6-yl)-1H-indol-5-yl)piperidin-1-yl)ethan-1-one], the values for the half-inhibitory concentration (IC50) in assay [1], in assay [2] and in assay [3] were < 100 nM, 100 to 1000 nM and 100 to 1000 nM, respectively.
For the molecule `CC(=O)N1CCC(c2ccc3[nH]c(-c4ccnc5[nH]ncc45)c(C(C)C)c3c2)CC1` [Example 592, 1-(4-(3-isopropyl-2-(1H-pyrazolo[3,4-b]pyridin-4-yl)-1H-indol-5-yl)piperidin-1-yl)ethan-1-one], the 50% inhibitory concentration (IC50) in assay [1] was 100 to 1000 nM; in assay [2], 100 to 1000 nM; in assay [3] it was > 50000 nM.
Consider `CC(C)c1c(-c2ccnc3[nH]cc(O)c23)[nH]c2ccc(C3CCNCC3)cc12` [Example 216, 4-(3-isopropyl-5-(piperidin-4-yl)-1H-indol-2-yl)-1H-pyrrolo[2,3-b]pyridin-3-ol], for which the values for the half-maximal inhibitory concentration (IC50) in assay [1], in assay [2] and in assay [3] were 1000 to 50000 nM, 100 to 1000 nM and 1000 to 50000 nM, respectively.
Regarding `Cc1cc(-c2[nH]c3ccc(C4CCN(C(=O)CN(C)C)CC4)cc3c2C(C)C)cc2nccn12` [Example 500, 2-(dimethylamino)-1-(4-(3-isopropyl-2-(5-methylimidazo[1,2-a]pyridin-7-yl)-1H-indol-5-yl)piperidin-1-yl)ethan-1-one], the IC50 in assay [1], in assay [2] and in assay [3] was 100 to 1000 nM throughout.
As for `CCOc1cc(-c2[nH]c3ccc(C4CCN(CC(=O)NC)CC4)cc3c2C(C)C)cc2nc(C)nn12` [Example 349, 2-(4-(2-(5-ethoxy-2-methyl-[1,2,4]triazolo[1,5-a]pyridin-7-yl)-3-isopropyl-1H-indol-5-yl)piperidin-1-yl)-N-methylacetamide], the IC50 in assay [1] was < 100 nM; in assay [2] it was < 100 nM; in assay [3], 1000 to 50000 nM.
As for `CNC(=O)CN1CCC(c2ccc3[nH]c(-c4ccc(C)n5ncnc45)c(C(C)C)c3c2)CC1` [Example 386, 2-(4-(3-isopropyl-2-(5-methyl-[1,2,4]triazolo[1,5-a]pyridin-8-yl)-1H-indol-5-yl)piperidin-1-yl)-N-methylacetamide], the IC50 was < 100 nM in assay [1], 100 to 1000 nM in assay [2] and 1000 to 50000 nM in assay [3].
Taken in the same sequence, the figures for `CCN(CC)C(=O)C1CCCN(CC(=O)N2CCC(c3ccc4[nH]c(-c5ccnc6[nH]ccc56)c(C(C)C)c4c3)CC2)C1` (stereo not drawn) [Example 569, N,N-diethyl-1-(2-(4-(3-isopropyl-2-(1H-pyrrolo[2,3-b]pyridin-4-yl)-1H-indol-5-yl)piperidin-1-yl)-2-oxoethyl)piperidine-3-carboxamide] were < 100 nM, < 100 nM and 100 to 1000 nM.
The like results for `Cc1cc(-c2[nH]c3ccc(C4CCN(C(=O)CN5CCC(F)(F)CC5)CC4)cc3c2C(C)C)cn2nnnc12` [Example 482, 2-(4,4-difluoropiperidin-1-yl)-1-(4-(3-isopropyl-2-(8-methyltetrazolo[1,5-a]pyridin-6-yl)-1H-indol-5-yl)piperidin-1-yl)ethan-1-one] were, in that order, < 100 nM, 100 to 1000 nM and > 50000 nM.
Turning to `Cc1c(-c2ncc3cc[nH]c3n2)[nH]c2ccc(C3CCN(C4CCN(C(C)C)CC4)CC3)cc12` [Example 809, 2-(5-(1′-isopropyl-[1,4′-bipiperidin]-4-yl)-3-methyl-1H-indol-2-yl)-7H-pyrrolo[2,3-d]pyrimidine], the concentration for half-maximal inhibition (IC50) in assay [1] is 1000 to 50000 nM; in assay [2], 1000 to 50000 nM; in assay [3], 100 to 1000 nM.
For `CCc1c(-c2ccnc3[nH]ncc23)[nH]c2ccc(C3CCN(Cc4cnn(C)c4)CC3)cc12` [Example 901, 4-(3-ethyl-5-(1-((1-methyl-1H-pyrazol-4-yl)methyl)piperidin-4-yl)-1H-indol-2-yl)-1H-pyrazolo[3,4-b]pyridine], the figures for the IC50 in assay [1], in assay [2] and in assay [3] were 100 to 1000 nM, < 100 nM and 1000 to 50000 nM, respectively.
